Measurements as given in patent US20240228411A1, “Functionalization of Lightly Branched Olefin Oligomers” (ExxonMobil Chemical Patents Inc., priority 2021, published 2024).
Where a name gives a salt, the structure may show the parent alone.

How the values were obtained:
Format in all cases: physicochemical
[1] = Wetting time, skein test; conditions: average of three measurements; for Wetting time (1 g/L): 1 g/L surfactant; for Wetting time (2 g/L): 2 g/L surfactant
Procedure: Wetting time was measured by heating an aqueous mixture of the surfactant in an oven for 15-20 minutes at 50-60° C. and homogenizing regularly. 1+/−0.1 g or 2+/−0.1 g of the surfactant was weighed into a 1 L volumetric flask, and distilled water was added by portions of 200-300 mL and agitating regularly. After the resulting foam disappeared, the volume was adjusted to the 1 liter level. Skein yams were removed from their packaging and hung for a period of time before measurement. The surfactant solution was poured into a graduated cylinder (1 L), and foam was removed with a small nitrogen or air flow. The skein was folded one time. A hook was fastened with its anchor at one end of the folded skein, and at the opposite end, the skein was cut through. The cut skein was then compacted. The skein was held with the anchor and the weight above the 1-liter graduated cylinder containing the surfactant solution. A stopwatch was activated just as the skein was released into the surfactant solution. The stopwatch was stopped once the skein started to sink. The average of three measurements using fresh surfactant solution and a new skein each time is reported. Wetting results are specified in Table 5 below.

[2] = Critical micelle concentration in water, Kruss K100 tensiometer
Procedure: Critical micelle concentrations in water were measured using an A Kruss Laboratory K100 tensiometer. CMC values were determined using the K100 instrument's fully automated measurement method, as described further in the K100 instrument's operating manual.

[3] = Calcium tolerance (hard water tolerance), surfactant remaining in filtrate by HPLC-ELSD; conditions: 25° C., 450 ppm surfactant, 420 ppm cations (3:1 Ca2+:Mg2+), overnight
Procedure: Calcium tolerance was measured at 25° C. using the following procedure. A surfactant solution containing 450 ppm of alcohol sulfate surfactant and 420 ppm cations (3:1 Ca^2+:Mg^2+) was prepared and allowed to stand overnight. Crystals formed during this time. The supernatant liquid was removed and passed through a 0.22 μm filter to provide a filtrate. The filtrate was then analyzed for surfactant residue. Analysis of the surfactant and salt residue was performed using an Agilent 1100 HPLC combined with SEDEX 75 evaporative light scattering detector (ELSD) using the run conditions specified in Table 4 below. Peak height was utilized to analyze surfactant concentration. Some samples were repeated in triplicate. Calcium tolerance results are specified in Table 5 below.

[4] = Solubility in water at 25° C., visual observation; conditions: 2-3 hours magnetic stirring
Procedure: Solubility measurements were conducted in water at 25° C. Solubility was determined through visual observation after 2-3 hours of magnetic stirring of surfactant solutions having variable concentrations.

| Wetting time (1 g/L) [1] [s] | Wetting time (2 g/L) [1] [s] | CMC [2] [g/g] | Solubility at 25° C. [4] [% Wt. %] | Structure (SMILES) | Calcium tolerance (ppm surfactant remaining) [3] [ppm] |
| --- | --- | --- | --- | --- | --- |
| 6.1 | 2.3 | 0.00129 | – | CCCC(C)CCCC(C)CCCOS(=O)(=O)O (centres unmarked) [Isotridecyl Sulfate-2, C# = 13, 4,8-dimethylundecan-1-sulfate] | – |
| 6.3 | 3.1 | 0.001 | <0.5 | CCCCCCCCCCCCCOS(=O)(=O)[O-].[Na+] [Sodium n-Tridecyl Sulfate] | 11.2 |
